# Patent publication US7956086B2, “Methods for the formulation and manufacture of artesunic acid for injection” (priority 2006, dated 2011)
# What was measured:
# [1] = stored under nitrogen @ 25° C., studies at Knoll; cited from earlier work
# [2] = Storage stability of bulk artesunic acid; format: physicochemical; settings: 20 months at 25° C.
# Experimental: Six thousand dry-filled vials of formulated artesunate for clinical use have been packaged. One thousand of the vials have been reserved for long-term stability testing under various conditions, including elevated temperatures and humidities, to test the integrity and durability of the packaging system. As packaged for clinical use, 20 ml vials have been dry-filled with 110 mg of ethylene oxide sterilized artesunate, stoppered, and sealed.
# The sterilized bulk drug of the invention has been tested and is still undergoing stability studies. […] The stability studies are still ongoing.
# [3] = in vivo
# Description: Patients were given a single dose of 1-4 milligrams per kilogram body weight in the form of an injection through an IV catheter (a tube with a needle attached) once a day for 3 days in a row.
smiles,measurement,setting,value
"C[C@H]1[C@H](OC(=O)CCC(=O)O)O[C@@H]2O[C@@]3(C)CC[C@H]4[C@H](C)CC[C@@H]1[C@@]24OO3 (relative stereo) [artesunic acid, butanedioic Acid, [3R-(3α,5a,6,8a,9α,10α,12,12a R*)]-mono(decahydro-3,6,9-trimethyl-3,12-epoxy-12H-pyrano[4,3-j]-1,2-benzodioxepin-10-yl)ester]",stability of bulk artesunic acid,[1],at least two years stability
same,degradation of sterilized bulk drug on storage,[2],no evidence of degradation
same,adverse effects,[3],no adverse effects
